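Interpolation was linear, between the two tested concentrations surrounding the appropriate level; five concentrations were tested over 48 hours in 96-well plates. GI50: concentration for 50% inhibition of growth.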 Active and inactive are the calls of the source. Cut-off read from the data, not from the text of the source: active = GI50 up to about 1.1 µM and inactive = higher.
Tests used:
Assay in all cases: NCI tumour cell line growth inhibition, 48 h
[1] = tested on: NCI-H23
[2] = tested on: 786-0
[3] = tested on: UACC-62
[4] = tested on: HT-29
[5] = tested on: MOLT-4
[6] = tested on: HL-60
[7] = tested on: OVCAR-3
[8] = tested on: MDA-MB-435
[9] = tested on: Hs-578T
[10] = tested on: TK-10
[11] = tested on: UO-31
[12] = tested on: DU-145
[13] = tested on: LOX IMVI
[14] = tested on: SNB-75
[15] = tested on: SK-MEL-2
[16] = tested on: PC-3
[17] = tested on: A549
[18] = tested on: A498
[19] = tested on: SF-539

Measured: GI50

O=C1Nc2ccccc2C1Cc1ccc([N+](=O)[O-])cc1 (stereo not given)
inactive: [1] > 100 µM | [2] > 100 µM | [3] > 100 µM | [4] > 100 µM | [5] 14.1 µM | [6] 5.57 µM | [7] > 100 µM | [8] > 100 µM | [9] 63.4 µM | [10] > 100 µM | [11] > 100 µM | [12] > 100 µM | [13] > 100 µM | [14] > 100 µM | [15] > 100 µM | [16] 74 µM | [17] > 100 µM

C[C@H](c1ccccc1)N1C(=O)[C@@H](O)[C@H]1[C@H](CO)OCc1ccccc1
inactive: [1] > 100 µM | [18] 20 µM | [2] > 100 µM | [3] > 100 µM | [4] > 100 µM | [5] > 100 µM | [7] > 100 µM | [8] > 100 µM | [9] > 100 µM | [10] > 100 µM | [11] > 100 µM | [12] > 100 µM | [13] > 100 µM | [14] > 100 µM | [15] > 100 µM | [16] > 100 µM | [17] > 100 µM

Nc1ccc2c3c1cccc3c(=O)n1c3ccc(Cc4ccc5c(c4)nc4c6ccc(N)c7cccc(c(=O)n54)c76)cc3nc21
inactive: [1] > 100 µM | [18] > 100 µM | [2] > 100 µM | [3] > 100 µM | [4] > 100 µM | [5] > 100 µM | [6] > 100 µM | [7] > 100 µM | [8] > 100 µM | [19] > 100 µM | [11] > 100 µM | [12] > 100 µM | [13] > 100 µM | [14] 30.8 µM | [15] > 100 µM | [16] > 100 µM | [17] > 100 µM

O=C(O)c1cc2ccc3ccccc3c2oc1=O
inactive: [1] > 100 µM | [18] 54.2 µM | [2] > 100 µM | [3] > 100 µM | [4] > 100 µM | [5] > 100 µM | [6] > 100 µM | [7] > 100 µM | [8] > 100 µM | [19] > 100 µM | [9] > 100 µM | [10] > 100 µM | [11] > 100 µM | [13] > 100 µM | [14] > 100 µM | [15] > 100 µM | [16] > 100 µM | [17] > 100 µM

CCOC(=O)[C@@H]1ON2O[C@H](OC3CCCCC3c3ccccc3)C[C@H]3OC(=O)[C@@H]1C32 (stereo not given in full)
inactive: [1] 27 µM | [18] > 100 µM | [2] > 100 µM | [3] > 100 µM | [4] > 100 µM | [5] > 100 µM | [7] > 100 µM | [8] > 100 µM | [19] > 100 µM | [9] > 100 µM | [10] > 100 µM | [11] > 100 µM | [12] > 100 µM | [13] > 100 µM | [14] > 100 µM | [17] > 100 µM

SC[C@@H]1COC[C@H](CS)S1
inactive: [1] > 100 µM | [2] > 100 µM | [3] > 100 µM | [4] > 100 µM | [5] > 100 µM | [6] > 100 µM | [7] > 100 µM | [8] > 100 µM | [19] > 100 µM | [10] > 100 µM | [11] > 100 µM | [12] > 100 µM | [13] > 100 µM | [14] 58.9 µM | [16] > 100 µM | [17] > 100 µM

Cc1ccc(SC(=O)N2C(=S)N=C(NC3CCCCC3)C23CCCCC3)cc1
inactive: [1] > 100 µM | [2] > 100 µM | [3] > 100 µM | [4] 57.9 µM | [6] 38.6 µM | [7] 50.6 µM | [8] > 100 µM | [19] > 100 µM | [9] 62.2 µM | [10] 25.2 µM | [11] 46.6 µM | [12] > 100 µM | [13] 95.5 µM | [14] 57.9 µM | [15] > 100 µM | [16] 44.6 µM | [17] 75.5 µM

CC(=O)NC(CC(C)C)C(=O)NC(CC(C)C)C(=O)NC(C=O)CCCNC(=N)N (stereo not given)
inactive: [1] > 100 µM | [18] > 100 µM | [2] > 100 µM | [3] > 100 µM | [4] > 100 µM | [5] 65 µM | [7] > 100 µM | [8] > 100 µM | [19] > 100 µM | [10] > 100 µM | [11] > 100 µM | [12] > 100 µM | [13] > 100 µM | [14] > 100 µM | [15] > 100 µM | [16] > 100 µM | [17] > 100 µM

Nc1ccc2c(c1)C(=O)N1CCC[C@H]1C(=O)N2
inactive: [1] > 100 µM | [18] > 100 µM | [2] > 100 µM | [3] > 100 µM | [4] > 100 µM | [5] > 100 µM | [7] > 100 µM | [8] > 100 µM | [19] > 100 µM | [10] > 100 µM | [11] > 100 µM | [12] > 100 µM | [13] > 100 µM | [14] > 100 µM | [15] > 100 µM | [16] > 100 µM | [17] > 100 µM

O=C(C(=O)n1ccc2ccccc21)c1c[nH]c2ccccc12
inactive: [1] > 10 µM | [2] > 10 µM | [3] > 10 µM | [4] > 10 µM | [5] > 10 µM | [6] > 10 µM | [7] > 10 µM | [8] > 10 µM | [19] > 10 µM | [9] > 10 µM | [10] > 10 µM | [11] > 10 µM | [12] > 10 µM | [13] > 10 µM | [14] > 10 µM | [15] > 10 µM | [16] > 10 µM | [17] > 10 µM

CCOC(=O)Cc1nn2c(=O)cc(C)nc2s1
inactive: [1] > 100 µM | [2] > 100 µM | [3] > 100 µM | [4] > 100 µM | [5] > 100 µM | [6] > 100 µM | [7] > 100 µM | [8] > 100 µM | [19] 55.2 µM | [9] > 100 µM | [10] > 100 µM | [11] > 100 µM | [12] > 100 µM | [13] > 100 µM | [14] > 100 µM | [15] > 100 µM | [16] > 100 µM | [17] > 100 µM

N=C(N)/N=C(\N)Nc1cnccn1
inactive: [1] > 100 µM | [18] > 100 µM | [2] > 100 µM | [3] > 100 µM | [4] > 100 µM | [5] > 100 µM | [6] > 100 µM | [7] > 100 µM | [8] > 100 µM | [19] > 100 µM | [10] > 100 µM | [11] > 100 µM | [12] > 100 µM | [13] > 100 µM | [14] > 100 µM | [15] > 100 µM | [16] > 100 µM | [17] > 100 µM

Cc1cccc2c1Oc1ccccc1C2NC(=O)c1ccc([N+](=O)[O-])cc1 (stereo not given)
inactive: [1] > 100 µM | [18] 76.4 µM | [2] > 100 µM | [3] > 100 µM | [4] > 100 µM | [5] > 100 µM | [6] > 100 µM | [7] 99.3 µM | [9] 29.4 µM | [10] > 100 µM | [11] > 100 µM | [12] 21 µM | [13] > 100 µM | [15] > 100 µM | [16] > 100 µM | [17] > 100 µM

COc1ccc2c(c1)CC[C@@H]1[C@@H]2CC[C@]2(C)C(=O)/C(=C/c3cc(OC)c(OC)c(OC)c3)C[C@@H]12
inactive: [1] 25 µM | [18] 59 µM | [2] 19.2 µM | [3] 30.2 µM | [5] 95.9 µM | [6] > 100 µM | [7] 19.5 µM | [8] > 100 µM | [19] 28.2 µM | [10] 19.4 µM | [11] 47.2 µM | [12] 42.4 µM | [14] 19.4 µM | [15] 19 µM | [16] 14 µM | [17] 40.9 µM

Brc1ccc(-c2cc(-c3ccc4c(c3)OCO4)c(-c3cccs3)n2Cc2ccccc2)cc1
inactive: [2] > 100 µM | [3] > 100 µM | [4] > 100 µM | [5] > 100 µM | [6] > 100 µM | [8] > 100 µM | [19] > 100 µM | [9] > 100 µM | [10] > 100 µM | [11] > 100 µM | [12] > 100 µM | [14] > 100 µM | [15] > 100 µM | [16] > 100 µM | [17] > 100 µM

O=C(Sc1c(-c2ccccc2)c(=O)n(-c2ccccc2)c(=S)n1-c1ccccc1)c1ccccc1
inactive: [1] > 100 µM | [2] > 100 µM | [3] 33.5 µM | [4] 57.9 µM | [5] 19.5 µM | [6] 33.2 µM | [7] > 100 µM | [8] 93.3 µM | [9] 33.7 µM | [10] > 100 µM | [11] 41.6 µM | [12] > 100 µM | [13] 26.4 µM | [14] 12.3 µM | [15] > 100 µM | [16] > 100 µM | [17] > 100 µM
